Assay results from patent US11026914B2 (DelMar Pharmaceuticals, Inc., priority 2013, dated 2021).
Where two headings read alike, the source gives them in different places.

Legend:
[1] = system: intracranial U251 human glioma tumors
Source text: However, TMZ-resistance has emerged as a significant unmet medical need, as DNA repair enzyme O^6-methylguanine DNA methyltransferase (MGMT) removes the methyl-group adducts caused by TMZ. […] We thus sought to investigate how our CSC and non-CSC panel would respond to VAL-083 alone or in combination with XRT. We further investigated the activity of VAL-083 in in vivo models of drug-resistant GBM in comparison to TMZ. Rag2 mice bearing intracranial human GBM xenograft tumors of either MGMT-positive and TMZ-resistant origin (BT74), or MGMT-negative and TMZ-sensitive origin (U251) were treated. VAL-083 was given i.p. 3 times/week×3 weeks, and the efficacy of VAL-083 in controlling tumor growth compared to TMZ (30 mg/kg). Disease progression was evaluated by overall survival, clinical observations and body weight measurements.
On study day 0 for each set of mice, 44 female Rag2 mice were inoculated intracranially in the right caudate-putamen nucleus (coordinates: ML-1.5 mm; AP 1 mm; DV −3.5 mm) with 7.5×10^4 U251 human glioma cells.

[2] = Plasma pharmacokinetics in brain tumor patients after IV infusion (WinNonlin non-compartmental analysis); format: in vivo, human; settings: for dose dependence of systemic exposure: dose escalation in patients
Protocol: Plasma drug concentration analysis data were analyzed using WinNonlin®, version 2.1A software (Pharsight Inc., Mountain View, Calif.) and Microsoft Office Excel 2007. Pharmacokinetic analysis was conducted by Dr. Sarath Kanekal, Ph.D. Use of MS Excel was limited to receipt of raw data, transfer into WinNonlin and generation of tables (Mean and SD) and graphs for the report.
The starting dose for Cohort #1 was 1.5 mg/m^2 IV daily×3 every 21 days. Cohorts 2 and 3 received DAG at doses of 3.0 and 5.0 mg/m^2 IV daily×3 every 21 days, respectively; cohort 4 received 10 mg/m^2. Dose escalation beyond 10 mg/m^2, up to 40 mg/m^2 IV daily×3 every 21 days is planned in the ongoing trial. Sample collection was on Day 1 at each dose level at the following time points: pre-dose, and 0.25, 0.5, 1, 2, 4, 6 h 15±5 minutes, 30±5 minutes, 60±10 minutes, 120±10 minutes, 240±15 minutes, and 360±15 minutes after the end of the IV study drug administration and immediately prior to Cycle 1, Day 2 of dosing. Drug concentration data was received from at least 3 patients for cohorts 1, 2 and 3, but only from 2 patients in cohort 4.
For the purposes of this interim analysis a fixed constant infusion time of 30 minutes and nominal collection time intervals were used for all patients. […] For the final PK analysis individual patient infusion time and exact collection time are used.
Pharmacokinetic analyses were performed on the plasma concentration versus time data using WinNonlin (Ver 2.1A) via non-compartmental analysis (NCA). A model for constant infusion (WinNonlin Model #202) was used for the analyses. Uniform weighting was used for all data. AUCall was calculated by the linear trapezoid rule and t1/2 of lambda z was used for estimating the terminal half-life. The last 2 or 3 concentrations above LLOQ were used for calculating lambda z. For clearance (CL) and Volume of Distribution (Vz), observed CL and observed Vz values outputted by WinNonlin are reported here. All plasma concentrations measurements reported as below the limit of quantitation (BLQ) was set equal to zero, and those reported as NS (no sample), if any, were left blank and treated as missing. Mean concentration and WinNonlin derived parameters are presented with standard deviation.

[3] = system: progressive secondary brain tumor; experiment: Phase I/II dose-escalation study: tumor response in progressive secondary brain tumor patients; format: in vivo, human; settings: n = 6
Source text: (2) There is evidence of leptomeningeal spread of disease.
Outcomes analysis of cohort 6 is ongoing.

[4] = system: cancer stem cells (BT74, GBM4 and GBM8); settings: BT74, GBM4 and GBM8, neurosphere growth assays; cited from earlier work
[5] = system: GBM cell lines SF188, U251, and T98G; experiment: Inhibition of tumor cell growth in GBM cell lines (FIG. 1, FIG. 6); format: cell-based, human; settings: independent of MGMT
[6] = system: recurrent glioblastoma multiforme (GBM); experiment: Phase I/II dose-escalation study: tumor response (RANO) in recurrent GBM patients
Source text: (§1) The study utilizes a 3+3 dose escalation design, until the MTD or the maximum specified dose is reached. […] In Phase II, additional patients will be treated at the MTD (or other selected optimum Phase II dose) to measure tumor responses. […] For these studies, the following is a summary of the inclusion criteria: (1) Patients must be greater than or equal to 18 years old. […] The following is a summary of the exclusion criteria: (1) There is a current history of neoplasm other than the entry diagnosis. Patients with previous cancers treated and cured with local therapy alone may be considered. (2) There is evidence of leptomeningeal spread of disease.
Higher doses may be enrolled subject to completion of mandated safety observation period with Cohort 6 (30 mg/m^2). Patients enrolled present with refractory progressive GBM and a dire prognosis. […] The primary endpoint of this portion of the study is to determine a modernized dosing regimen for advancement to registration-directed clinical trials. […] In this design, it is not possible to perform a rigorous assessment of patient benefit due to slowed tumor growth. Tumor volume is assessed during the study based on RANO criteria.
Open-label, single-arm Phase I/II dose-escalation study in patients with histologically-confirmed initial diagnosis of primary WHO Grade IV malignant glioma (glioblastoma). […] The study utilizes a 3+3 dose-escalation design. […] The RANO (Response Assessment in Neuro-Oncology) criteria divide responses into four general categories: complete response, partial response, stable disease, and regression.

[7] = system: normal human neural stem cells; settings: neurosphere growth assays; cited from earlier work
[8] = human, in vivo
Source text: as §1
Open-label, single-arm Phase I/II dose-escalation study in patients with histologically-confirmed initial diagnosis of primary WHO Grade IV malignant glioma (glioblastoma). […] The study utilizes a 3+3 dose-escalation design.

GBM = settings: cited from earlier work
[9] = target: glycogen synthase kinase-3β (GSK-3β) (Homo sapiens, UniProt P49841); settings: cited from earlier work
glycogen synthase kinase-3β (GSK-3β), sequence (P49841 whole entry, species assumed): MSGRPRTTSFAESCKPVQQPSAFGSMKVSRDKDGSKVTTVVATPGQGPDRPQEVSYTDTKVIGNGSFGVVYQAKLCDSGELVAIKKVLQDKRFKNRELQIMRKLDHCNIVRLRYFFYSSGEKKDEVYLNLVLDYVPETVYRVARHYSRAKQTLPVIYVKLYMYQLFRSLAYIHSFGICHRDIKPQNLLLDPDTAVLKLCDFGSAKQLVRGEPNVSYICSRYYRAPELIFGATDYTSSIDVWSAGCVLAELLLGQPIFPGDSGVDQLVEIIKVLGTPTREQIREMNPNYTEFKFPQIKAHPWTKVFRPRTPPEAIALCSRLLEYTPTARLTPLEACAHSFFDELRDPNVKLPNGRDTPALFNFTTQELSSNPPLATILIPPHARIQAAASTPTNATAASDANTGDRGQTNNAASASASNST

O[C@H]([C@H](O)[C@@H]1CO1)[C@H]1CO1 [dianhydrogalactitol]
median survival time ([1]; 3 mg/kg i.p. 3 times/week x 3 weeks): 54 days
median survival time ([1]; 4 mg/kg i.p. 3 times/week x 3 weeks): 72 days
median survival time ([1]; 5 mg/kg i.p., 4 doses only): 57 days
average Cmax ([2]; 10 mg/m^2): < 0.2 µg/mL
Cmax ([2]; 20 mg/m^2, average): 0.18 µg/mL
AUC ([2]; Cohort 1, 1.5 mg/m^2): 0.0189 µg·h/mL
Cmax ([2]; Cohort 1, 1.5 mg/m^2): 0.0165 µg/mL
Tmax ([2]; Cohort 1, 1.5 mg/m^2): 15 min
t-½ ([2]; Cohort 1, 1.5 mg/m^2): 2.02 h
AUC ([2]; Cohort 2, 3 mg/m^2): 0.0485 µg·h/mL
Cmax ([2]; Cohort 2, 3 mg/m^2): 0.0464 µg/mL
Tmax ([2]; Cohort 2, 3 mg/m^2): 15 min
t-½ ([2]; Cohort 2, 3 mg/m^2): 0.83 h
AUC ([2]; Cohort 3, 5 mg/m^2): 0.108 µg·h/mL
Cmax ([2]; Cohort 3, 5 mg/m^2): 0.0805 µg/mL
Tmax ([2]; Cohort 3, 5 mg/m^2): 15 min
t-½ ([2]; Cohort 3, 5 mg/m^2): 1.27 h
AUC ([2]; Cohort 4, 10 mg/m^2): 0.1917 µg·h/mL
Cmax ([2]; Cohort 4, 10 mg/m^2): 0.172 µg/mL
Tmax ([2]; Cohort 4, 10 mg/m^2): 15 min
t-½ ([2]; Cohort 4, 10 mg/m^2): 1.19 h
time of peak concentration after initiation of the intravenous infusion ([2]; all dose levels 1.5-10 mg/m^2): 0.25
time for plasma concentrations to return to near baseline after dosing ([2]; cohorts 1-4): ≤ 8 h
dose dependence of systemic exposure [2]: dose-dependent linear systemic exposure
dose dependence of systemic exposure ([2]; listed as DAG): more than dose proportional increase in exposure
dose dependence of systemic exposure ([2]; listed as Dianhydrogalactitol): dose-dependent increase in exposure
dose dependence of systemic exposure ([2]; listed as VAL-083): dose-dependent linear systemic exposure
plasma half-life ([2]; patients, IV): 60 to 120 min
plasma terminal half-life ([2]; patients, IV): 60 to 120 min
Tumor Response, Overall [3]: 17%
Tumor Response, type (number of patients) [3]: SD (1)
inhibition of growth of cancer stem cells [4]: 80-100%
inhibition of tumor (cell) growth compared with TMZ [5]: better than TMZ
tumor response in cohort 6 ([6]; 30 mg/m^2, after 1 cycle, one of two patients): exhibited stable disease
Tumor Response, Overall ([6]; GBM patients, n = 8): 25%
Tumor Response, type (number of patients) ([6]; GBM patients, n = 8): PR (1); SD
MRI scans, abnormal enhancement ([6]; Patient #26, T=0 vs T=64 days, after two cycles): Thick confluent regions of abnormal enhancement have diminished
patients exhibiting a response (stable disease or partial response) ([6]; early cohorts, Example 1): Two patients exhibiting a response
effect on normal human neural stem cells [7]: minimal effect
maximum tolerated dose (MTD), as 33 day cycle cumulative dose [8]: > 120 mg/m^2
Recovery (GBM; GBM, historical data): Within 7-8 days
efficacy in combination with radiation versus radiation alone (GBM; human, in vivo, iv): superior to radiation alone
DLT (GBM; human, in vivo): Hematologic
Median O.S. (XRT + Chemo) (GBM; human, in vivo): 67 weeks
Nadir (GBM; human, in vivo): 18 to 21 days
Other Severe Toxicities Reported (>2%) (GBM; human, in vivo): None

Cn1nnc2c(C(N)=O)ncn2c1=O [temozolomide]
day of termination at the end of the study ([1]; TMZ 30 mg/kg): 102 days
DLT (GBM; GBM, historical data): Hematologic
Nadir (GBM; GBM, historical data): 21 to 28 days
Recovery (GBM; GBM, historical data): Within 14 days

O=NN(CCCl)C(=O)NCCCl [Carmustine]
Median O.S. (XRT + Chemo) (GBM; GBM, historical data): 40-50 weeks
Nadir (GBM; human, in vivo): 21 to 35 days

CN1C(=O)/C(=C2/C(=O)Nc3ccccc32)c2ccccc21 [meisoindigo]
concentration for inhibition of GSK-3β [9]: 5 to 50 nM
